Source: patent US20240335431A1, “1-H-PYRROLO[2,3-c]PYRIDINE COMPOUNDS” (Acerta Pharma B.V., priority 2023, published 2024)
Read-outs that look alike come from different tables or passages of the source.

Tests used:
hERG [1] = biological target: T1, hERG (Homo sapiens (Human), UniProt Q12809); experiment: hERG assay 2, QPatch II 48X, room temperature; assay type: cell-based; details: hERG DUO cell line, top 200 μM
Description: Experiments were performed on the QPatch II 48X (Sophion Biosciences) high throughput patch clamp platform at room temperature and used single hole Qplates. hERG DUO cell line (BSys) was used. The internal patch clamp solution was KF 60 mM, KCl 70 mM, HEPES 10 mM, EGTA 10 mM, and 5 mM Mg ATP (pH7.2). After sealing and whole cell access was gained the external solution (NaCl 140 mM, KCl 4 mM, HEPES 10 mM, CaCl2 2 mM, MgCl2 1 mM, glucose 5 mM (pH 7.4) was applied twice to establish stable baseline currents. An industry standard +40/−40 mV voltage protocol was applied every 15 seconds. All compounds were tested in a 6-point cumulative assay (final DMSO concentration 0.4-2% depending on stock concentration of compounds). Compounds were dispensed from initial 10 mM or 50 mM DMSO stocks after which DMSO dilutions were undertaken with a top concentration of 200 μM tested. Solvent controls were run in all experiments in line with the DMSO % required. Only wells that passed acceptance criteria for this platform were used in this analysis (500 MegaOhm seal resistance and current size >0.2 nA). Analysis was completed in Prism Graphpad to complete a composite IC50, by plotting % inhibition versus log compound concentration and using a log(inhibitor) vs. response—Variable slope.

MOLM-13 cells = experiment: Proliferation assay, MOLM-13 (CellTiter-Glo, 7 days); assay type: cell-based, human
Description: (§1) The anti-proliferative effect of compounds was tested in human leukaemia cell lines. The cell lines […] and MV4; 11 each harbor an MLL translocation expressing the MLL fusion proteins MLL-AF9 and MLL-AF4, respectively. Each also express the wildtype protein from the second allele. OCI-AML3 cells carrying the NPM1c gene mutation were also tested.
(§2) MOLM-13 and HEL cells were cultured in RPMI 1640 (Gibco) supplemented with 10% FBS (Gibco) and 1% Pen/Strep (Gibco). MV4; 11 cells were cultured in IMDM (Gibco) supplemented with 10% FBS (Gibco) and 1% Pen/Strep (Gibco). OCI-AML3 cells were cultured in MEMa (Gibco) supplemented with 20% FBS (Gibco) and 1% Pen/Strep (Gibco).
(§3) To assess proliferative effects, 125 MOLM-13 cells, 300 MV4; 11 cells, 75 OCI-AML3 cells, and 200 HEL cells were seeded in 40 μL media per well in 384-well ViewPlates (Perkin Elmer, 6007480). Cell seeding numbers were chosen based on growth curves to ensure linear growth throughout the experiments. Test compounds were added at 3.16-fold serial dilutions in DMSO from […] and DMSO content was normalized to 0.1%. Cells were incubated for 7 days at 37° C. and 5% CO2. A day 0 plate was seeded for each cell line and used as a standard control.
(§4) To measure cell viability, CellTiter-Glo 2.0 (Promega, G9242) luminescent growth indicator was used. 10 μL CellTiter-Glo reagent was added per well. Plates were placed on a plate shaker for 2 minutes in the dark and left to incubate off the shaker for another 8 minutes in the dark, for a total of 10 minutes. Plates were read using an EnVision plate reader (Perkin Elmer) using the Luminescence aperture and a measurement time of 0.1 second.
(§5) Data were analyzed in Genedata Screener®. IC50 values were determined by plotting % inhibition versus log compound concentration and using a one site dose response model. Raw data signals were normalized using 0.1% DMSO media only as background control, 0.1% DMSO with cells no compound as 100% viability (maximum signal), and day 0 0.1% DM with cells no compound as 0% viability (minimum signal).

[2] = Human liver microsomes (HLMs) intrinsic clearance assay; assay type: in vitro ADME; details: for microsomal CLint at 1 µM: human, microsomes, pH 7.4, HLM CLint
Description: Human liver microsomes (HLMs) were obtained from Corning (UltraPool 150 donors) at a concentration of 20 mg/mL protein. HLMs were stored at −80° C. until use and prior to use, thawed in a 37° C. water bath and then stored on wet ice. DMSO and NADPH were sourced from Solarbio S&T Co Ltd.
2 mL of 10 mM DMSO stock solutions of test compound were added to 198 mL acetonitrile to produce […] concentration. 1325 mL of 20 mg/mL HLM were added to 22260 mL of phosphate buffer to produce the HLM mixture. An 8.334 mg/mL solution of NADPH was prepared in 100 mmol/L pH 7.4 phosphate buffer.
222.5 mL of the HLM mixture and 25 mL of the 10 mM NADPH were added into the incubation plates (1 mL 96 well deep well plate from Thermo). The mixture was vortexed for 10 seconds at 1000 rpm. The incubation plate was pre-warmed in a water bath at 37° C. for 8 minutes. 2.5 mL of the […] stocks of test compound was added to initiate the reaction. The mix was vortexed for 12 seconds at 1000 rpm and incubated at 37° C. The incubation mixture (250 mL) contained 1 mg/mL HLM, 1 mmol/L NADPH and […].
The reaction was quenched by transferring 20 mL of the incubation mixture at 0.5, 5, 10, 15, 20 and 30 minutes into the quenching plate containing 100 mL of cold stop solution (acetonitrile containing internal standards). The plate was vortexed at 800 rpm for 2 minutes.
The quenching plates were centrifuged for 20 minutes at 4000 rpm and 4° C. 40 mL of the supernatant was transferred into a 96-well analysis plate containing 160 mL of water. The analysis plate was shaken at 1000 rpm for 2 minutes and the samples analysed by LC-MS/MS.
Peak areas were determined from extracted ion chromatograms. Percent parent remaining was calculated from peak area of test compound. The slope value, k, was determined by linear regression of the natural logarithm of percent parent remaining versus incubation time. The in vitro half-life (t1/2) was determined from the slope value by the equation: […]
Conversion of the in vitro half-life (min) into in vitro CLint (mL/min/mg proteins) was completed using the equation: […]

HEL cells = experiment: Proliferation assay, HEL control cell line (CellTiter-Glo, 7 days); assay type: cell-based, human; details: Homo sapiens, HEL, 168 h
Description: as §1, §2, §3, §4, §5

hERG [3] = biological target: T1, hERG; experiment: hERG assay 1 (standard), SyncroPatch 384PE; assay type: cell-based; details: CHO cells, room temperature, up to 40 uM
Description: Experiments were performed on the SyncroPatch 384PE (Nanion Technologies) high throughput patch clamp platform at room temperature and used medium resistance chips with 4 patch holes per site. hERG-expressing Chinese hamster ovary K1 (CHO) cell line was used in assay-ready format and kept in liquid nitrogen until use. 2 vials of cells (10×10^6 cells per vial) were thawed and added to 20 ml Hepes-buffered saline solution (HBSS). HBSS comprised 140 mM NaCl, 4 mM KCl, 10 mM HEPES and 5 mM Glucose (pH 7.4). The internal patch clamp solution was KF 120 mM, KCl 20 mM, HEPES 10 mM, EGTA 10 mM, and 25 μM Escin (pH 7.2). After the initial sealing process was complete, a seal enhancer solution comprising HBSS supplemented with 10 mM CaCl2 and 1 mM MgCl2 was applied to cells. The external solution was then exchanged (4 times) for external patch clamp solution comprising NaCl 80 mM, KCl 4 mM, HEPES 10 mM, CaCl2 2 mM, MgCl2 1 mM, glucose 5 mM, and NMDG 60 mM (pH7.4). All compounds were dispensed from initial 10 mM DMSO stocks. An industry standard +60/−40 mV voltage protocol was applied every 15 seconds. Compounds were tested in a 6-point cumulative assay (final DMSO concentration 0.33%), with a concentration range of 139 nM to 40 uM. Data were analyzed in Genedata Screener®. IC50 values were determined by plotting % inhibition versus log compound concentration and using a one site dose response model. Only wells that passed acceptance criteria for this platform were used in this analysis (30 MegaOhm seal resistance, Z prime >0.4 and current size >0.2 nA).

MV4;11 cells = experiment: Proliferation assay, MV4;11 (CellTiter-Glo, 7 days); assay type: cell-based, human; details: read-out: MV-4-11 IC50
Description: as §1, §2, §3, §4, §5

OCI-AML3 cells = experiment: Proliferation assay, OCI-AML3 (CellTiter-Glo, 7 days); assay type: cell-based, human; details: Homo sapiens, OCI-AML-3, 168 h
Description: as §1, §2, §3, §4, §5

[4] = Caco-2 cell monolayers intrinsic permeation assay in the presence of efflux inhibitors; assay type: in vitro ADME; details: Caco-2, with efflux inhibitors
Source text: Caco-2 cells were obtained from American Type Culture Collection (ATCC). HEPES, penicillin, streptomycin, bovine serum albumin (BSA) were obtained from Beijing Xinjingke Biotechnology Co, Ltd. Fetal bovine serum, Hank's balanced salt solution (HBSS) and non-essential amino acids (NEAA) were purchased from Gibco. Dulbecco's Modified Eagle's Medium (DMEM) was purchased from Corning and MES from Sigma. HTS Transwell-24 permeable supports were purchased from Corning. Zosuquidar and Ko-143 were obtained from MedChemExpress and Benzbromarone from Sigma.
The Caco-2 cell culture medium consisted of DMEM with high glucose and L-glutamine supplemented with 10% FBS, 0.1 mg/mL streptomycin, 100 units of penicillin, 0.6 mg/mL kanamycin sulfate and 1×NEAA. […] culture medium was added to each Transwell insert with 800 mL added to each well of the reservoir. After incubation at 37° C. in 5% CO2 for 1 hour, the plates were ready for seeding.
The cells were cultivated in T-75 flasks at 37° C., 5% CO2, 95% relative humidity. At 80 to 90% confluence, cells were treated with trypsin/EDTA treatment until they became detached. The trypsin/EDTA was inactivated by adding excess serum containing medium. The cell suspension was centrifuged at 120 g for 10 minutes followed by resuspension of the cell pellet in seeding medium at a cell density of 7.92×10^5 cells/mL.
[…] of the resulting cell suspension was added to each well of the Transwell plate and incubated for 14 to 18 days, with medium replaced every other day. After incubation for 14 to 18 days, the cells should have reached confluence and should be tested for electrical resistance using a Millicel Epithelial Volt-Ohm measuring system (Millipore).
The cell monolayers were washed twice with pre-warmed HBSS and incubated at 37° C. for 30 minutes under gentle shaking (480 rpm).
The compound under test was presented as a 10 mM DMSO stock solution. 2 mL of the 10 mM stock was added to 8 mL DMSO to produce a 2 mM stock. 2 mL was added to 398 mL of HBSS containing 10 mM Zosuquidar, 30 mM Benzbromarone and 2 mM KO-143 to make a […] solution.
210 mL of the test compound solution was added to the apical compartment of the Transwell plate, with a 10 mL sample taken to act as the time 0 sample. The wells of the receiver (basolateral) compartment were filled with 800 mL HBSS (containing the efflux inhibitors). The plates were incubated at 37° C. with shaking at 480 rpm for 120 minutes with sampling at 45 and 120 minutes.
At each sampling time (0, 45 and 120 minutes) 10 mL was removed from the apical compartment and add to 90 mL (HBSS containing the efflux inhibitors). 100 mL was removed from each basolateral compartment. 3 volumes of cold acetonitrile containing internal standard was added to each sample and vortex mixed for 10 minutes at 100 rpm. Samples were then centrifuged at 400 rpm for 20 minutes. 50 mL of the supernatant was taken for LC/MS/MS analysis to determine compound concentration.
The apparent permeability (Papp), in units of centimetre per second, were calculated for Caco-2 drug transport using the following equation: […]
Where CR is the concentration of compound in the receiver side at the respective time point, CD is the concentration of compound in the donor side at the respective timepoint. Area is the surface area of the membrane and time is 4500 seconds (75×60 seconds).

T1 sequence (Q12809 whole entry): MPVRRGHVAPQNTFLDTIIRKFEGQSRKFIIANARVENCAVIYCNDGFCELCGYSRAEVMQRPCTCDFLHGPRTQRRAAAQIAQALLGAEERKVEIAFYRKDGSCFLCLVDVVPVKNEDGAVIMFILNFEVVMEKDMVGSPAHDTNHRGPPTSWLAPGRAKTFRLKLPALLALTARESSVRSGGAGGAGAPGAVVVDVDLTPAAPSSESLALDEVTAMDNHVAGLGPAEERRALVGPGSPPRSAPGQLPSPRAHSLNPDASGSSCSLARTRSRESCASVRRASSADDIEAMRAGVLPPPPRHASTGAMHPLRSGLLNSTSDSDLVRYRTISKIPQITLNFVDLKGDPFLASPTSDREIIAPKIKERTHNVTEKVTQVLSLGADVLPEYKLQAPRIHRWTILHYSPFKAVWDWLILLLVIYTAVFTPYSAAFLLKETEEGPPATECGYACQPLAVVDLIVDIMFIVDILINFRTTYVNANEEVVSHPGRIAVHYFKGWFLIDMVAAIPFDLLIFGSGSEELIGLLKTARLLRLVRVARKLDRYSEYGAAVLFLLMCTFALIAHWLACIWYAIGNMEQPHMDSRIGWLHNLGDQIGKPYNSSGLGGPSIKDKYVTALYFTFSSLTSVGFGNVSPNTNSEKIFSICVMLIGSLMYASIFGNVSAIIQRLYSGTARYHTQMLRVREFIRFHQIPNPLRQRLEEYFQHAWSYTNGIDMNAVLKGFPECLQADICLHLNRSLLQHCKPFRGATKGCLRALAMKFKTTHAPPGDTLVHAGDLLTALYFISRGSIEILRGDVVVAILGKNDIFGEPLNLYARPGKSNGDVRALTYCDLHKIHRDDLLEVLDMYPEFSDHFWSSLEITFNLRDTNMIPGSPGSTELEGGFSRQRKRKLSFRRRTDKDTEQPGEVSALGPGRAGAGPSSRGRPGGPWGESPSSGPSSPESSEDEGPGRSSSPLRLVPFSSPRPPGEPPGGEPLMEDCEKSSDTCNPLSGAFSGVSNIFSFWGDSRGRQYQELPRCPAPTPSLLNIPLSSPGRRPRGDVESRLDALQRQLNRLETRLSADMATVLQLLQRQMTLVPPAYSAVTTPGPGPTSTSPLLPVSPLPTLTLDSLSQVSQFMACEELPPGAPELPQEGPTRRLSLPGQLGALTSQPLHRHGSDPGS

Compound | IC50 (hERG [1]) [nM] | IC50 (MOLM-13 cells) [nM] | HLM CLint ([2]; 1 mg/mL HLM, NADPH) [µL/min/mg] | IC50 (HEL cells) [nM] | IC50 (hERG [3]) [nM] | IC50 (MV4;11 cells) [nM] | IC50 (MOLM-13 cells; Homo sapiens, MOLM-13, 168 h) [nM] | microsomal CLint at 1 µM [2] [µL/min/mg] | IC50 (OCI-AML3 cells) [nM] | IC50 (MV4;11 cells; Homo sapiens, MV4-11, 168 h) [nM] | Papp A→B [4] [×10⁻⁶ cm/s]
CCN(C(=O)c1cc(F)ccc1-n1c(C)c(C(=O)C2CCN(C(=O)[C@@H]3CCC4(CC4)N3)CC2)c2ccncc21)C(C)C (single isomer, unassigned) [Example 49-1] | > 200000 | 2290 | >300 | > 10000 | > 40000 | 2950 |  |  |  |  | 
C[C@@H]1CC[C@H](C)N1C(=O)c1cc(F)ccc1-n1cc(C(=O)C2CCN(C(=O)[C@H]3N[C@@H]4CC[C@H]3C4)CC2)c2ccncc21 [Example 32, (1-((1R,3S,4S)-2-Azabicyclo[2.2.1]heptane-3-carbonyl)piperidin-4-yl)(1-(2-((2R,5S)-2,5-dimethylpyrrolidine-1-carbonyl)-4-fluorophenyl)-1H-pyrrolo[2,3-c]pyridin-3-yl)methanone] |  |  |  | > 10000 |  |  | 154 | 18 | 275 | 144 | 0.4
CC(C)c1ccccc1-c1cc(F)ccc1-n1cc(C(=O)C2CCN(C(=O)[C@H]3N[C@@H]4CC[C@H]3C4)CC2)c2ccncc21 [Example 39, (1-((1R,3S,4S)-2-Azabicyclo[2.2.1]heptane-3-carbonyl)piperidin-4-yl)(1-(5-fluoro-2′-isopropyl-[1,1′-biphenyl]-2-yl)-1H-pyrrolo[2,3-c]pyridin-3-yl)methanone] |  |  |  | 6900 |  |  | 65 | 259 | 47 | 31 | 
